Test results published in ChEMBL document CHEMBL3044741, “Synthesis of novel biologically active methylene derivatives of sydnones” (Med Chem Res, 2013).
≈ marks a conversion by molar mass, not a printed value.

What was measured:
[1] = system: Staphylococcus aureus; experiment: Antibacterial activity against Staphylococcus aureus MTCC 96 after 24 hrs by broth dilution method; type: functional; conditions: MTCC 96, 24 h
[2] = system: Cytomegalovirus; experiment: Antiviral activity against Cytomegalovirus Davis in HEL cells assessed as reduction in plaque formation; type: functional, organism-based; conditions: Human betaherpesvirus 5, Davis
[3] = system: Staphylococcus aureus; experiment: Antibacterial activity against Staphylococcus aureus MTCC 96 at 250 ug/ml after 24 hrs by Kirby-Bauer method; type: functional; conditions: MTCC 96, 24 h, read-out: IZ
[4] = Cytotoxicity against human MT4 cells by MTT assay; type: cell-based
[5] = system: Cytomegalovirus; experiment: Antiviral activity against Cytomegalovirus AD-169 infected in HEL cells assessed as reduction in plaque formation; type: functional, organism-based; conditions: Human betaherpesvirus 5, AD-169, HEL
[6] = Selectivity index, ratio of CC50 for human MT4 cells to IC50 for HIV2 ROD; type: functional
[7] = Cytotoxicity against human HEL cells assessed as alteration in cell morphology; type: cell-based
[8] = Cytotoxicity against human HEL cells; type: cell-based
[9] = system: Human alphaherpesvirus 3; experiment: Antiviral activity against thymidine kinase-deficient Varicella-zoster virus infected in HEL cells assessed as reduction in plaque formation; type: functional, organism-based; conditions: Human alphaherpesvirus 3, HEL
[10] = system: Candida albicans; experiment: Antifungal activity against Candida albicans MTCC 227; type: functional
[11] = system: Escherichia coli; experiment: Antibacterial activity against Escherichia coli MTCC 443 after 24 hrs by broth dilution method; type: functional; conditions: MTCC 443, 24 h
[12] = system: Pseudomonas aeruginosa; experiment: Antibacterial activity against Pseudomonas aeruginosa MTCC 424 after 24 hrs by broth dilution method; type: functional; conditions: MTCC 424, 24 h
[13] = system: Aspergillus niger; experiment: Antifungal activity against Aspergillus niger MTCC 282; type: functional
[14] = system: Pseudomonas aeruginosa; experiment: Antibacterial activity against Pseudomonas aeruginosa MTCC 424 at 250 ug/ml after 24 hrs by Kirby-Bauer method; type: functional; conditions: MTCC 424, 24 h, read-out: IZ
[15] = Selectivity index, ratio of CC50 for human MT4 cells to IC50 for HIV1 3B; type: functional
[16] = system: Human immunodeficiency virus 1; experiment: Antiviral activity against HIV1 3B infected in MT4 cells assessed as inhibition of virus-induced cytopathogenicity by MTT assay; type: functional, organism-based; conditions: Human immunodeficiency virus 1, 3B
[17] = system: Aspergillus clavatus; experiment: Antifungal activity against Aspergillus clavatus MTCC 1323 at 250 ug/ml after 74 hrs by Kirby-Bauer method; type: functional; conditions: MTCC 1323, 74 h, read-out: IZ
[18] = system: Aspergillus clavatus; experiment: Antifungal activity against Aspergillus clavatus MTCC 1323; type: functional
[19] = system: Human alphaherpesvirus 3; experiment: Antiviral activity against Varicella-zoster virus Oka expressing thymidine kinase infected in HEL cells assessed as reduction in plaque formation; type: functional, organism-based; conditions: Human alphaherpesvirus 3, strain Oka vaccine
[20] = system: Candida albicans; experiment: Antifungal activity against Candida albicans MTCC 227 at 250 ug/ml after 74 hrs by Kirby-Bauer method; type: functional; conditions: MTCC 227, 74 h, read-out: IZ
[21] = system: Escherichia coli; experiment: Antibacterial activity against Escherichia coli MTCC 443 at 250 ug/ml after 24 hrs by Kirby-Bauer method; type: functional; conditions: MTCC 443, 24 h, read-out: IZ
[22] = system: Human immunodeficiency virus 2; experiment: Antiviral activity against HIV2 ROD infected in MT4 cells assessed as inhibition of virus-induced cytopathogenicity by MTT assay; type: functional, organism-based; conditions: Human immunodeficiency virus 2, ISOLATE ROD
[23] = system: Streptococcus pyogenes; experiment: Antibacterial activity against Streptococcus pyogenes MTCC 442 after 24 hrs by broth dilution method; type: functional; conditions: MTCC 442, 24 h
[24] = system: Aspergillus niger; experiment: Antifungal activity against Aspergillus niger MTCC 282 at 250 ug/ml after 74 hrs by Kirby-Bauer method; type: functional; conditions: MTCC 282, 74 h, read-out: IZ
[25] = system: Streptococcus pyogenes; experiment: Antibacterial activity against Streptococcus pyogenes MTCC 442 at 250 ug/ml after 24 hrs by Kirby-Bauer method; type: functional; conditions: MTCC 442, 24 h, read-out: IZ

Row | SMILES | MIC [1] | EC50 [2] | zone of inhibition at 250 µg/mL [3] | CC50 [4] | EC50 [5] | Ratio CC50/IC50 [6] | MCC [7] | CC50 [8] | EC50 [9] | MIC [10] | MIC [11] | MIC [12] | zone of inhibition at 250 µg/mL [14] | Ratio CC50/IC50 [15] | IC50 [16] | EC50 [19] | zone of inhibition at 250 µg/mL [21] | IC50 [22] | MIC [23] | zone of inhibition at 250 µg/mL [25] | other results
1 | CC(=O)N1CCN(Cc2c([O-])on[n+]2-c2ccc(C)cc2)CC1 | 500 mg/L (≈ 1580 µM) | > 20 mg/L | 17 mm | 17.3 mg/L (≈ 54.6 µM) | > 20 mg/L | <1 | 100 µg/mL | 24.9 mg/L (≈ 78.7 µM) | > 20 mg/L | 200 mg/L (≈ 632 µM) | 250 mg/L (≈ 790 µM) | 500 mg/L (≈ 1580 µM) | 17 mm | <1 | > 17.3 mg/L | > 20 mg/L | 19 mm | > 17.3 mg/L | 100 mg/L (≈ 316 µM) | 21 mm | MIC [13]: 200 mg/L (≈ 632 µM); zone of inhibition at 250 µg/mL [17]: 24 mm; MIC [18]: 200 mg/L (≈ 632 µM); zone of inhibition at 250 µg/mL [20]: 22 mm; zone of inhibition at 250 µg/mL [24]: 26 mm
2 | Cc1ccc(-[n+]2noc([O-])c2CN2CCN(C3=Nc4ccccc4Sc4ccccc43)CC2)cc1 | 200 mg/L (≈ 414 µM) | > 20 mg/L | 19 mm | 13.7 mg/L (≈ 28.2 µM) | > 4 mg/L | <1 | ≥ 20 µg/mL | 14.8 mg/L (≈ 30.6 µM) | > 20 mg/L | 1000 mg/L (≈ 2070 µM) | 250 mg/L (≈ 517 µM) | 125 mg/L (≈ 258 µM) | 21 mm | <1 | > 13.6 mg/L | > 20 mg/L | 19 mm | > 13.6 mg/L | 500 mg/L (≈ 1030 µM) | 16 mm | MIC [13]: 1000 mg/L (≈ 2070 µM); zone of inhibition at 250 µg/mL [17]: 18 mm; MIC [18]: 1000 mg/L (≈ 2070 µM); zone of inhibition at 250 µg/mL [20]: 21 mm; zone of inhibition at 250 µg/mL [24]: 18 mm
3 | O=C(O)c1cn(C2CC2)c2cc(N3CCNCC3)c(F)cc2c1=O [CIPROFLOXACIN] | 50 mg/L (≈ 151 µM) |  | 22 mm |  |  |  |  |  |  |  | 25 mg/L (≈ 75.4 µM) |  | 27 mm |  |  |  | 28 mm |  | 50 mg/L (≈ 151 µM) | 22 mm | 
4 | Cc1ccc(-[n+]2noc([O-])c2CN2CCN(CCOCCO)CC2)cc1 | 200 mg/L (≈ 552 µM) |  | 19 mm |  |  |  |  |  |  |  | 500 mg/L (≈ 1380 µM) | 250 mg/L (≈ 690 µM) | 21 mm |  |  |  | 16 mm |  | 500 mg/L (≈ 1380 µM) | 16 mm | 
5 | Nc1ccn([C@H]2CC[C@@H](CO)O2)c(=O)n1 [ZALCITABINE] |  |  |  | > 20 mg/L |  | >108 |  |  |  |  |  |  |  | >127 | 0.16 mg/L (≈ 0.758 µM) |  |  | 0.19 mg/L (≈ 0.9 µM) |  |  | 
6 | Cc1ccc(-[n+]2noc([O-])c2CN2CCN(c3ccccc3)CC2)cc1 | 250 mg/L (≈ 713 µM) | > 20 mg/L | 18 mm | 13.2 mg/L (≈ 37.8 µM) | > 20 mg/L | <1 | 100 µg/mL | 20 mg/L (≈ 57.1 µM) | > 4 mg/L | 500 mg/L (≈ 1430 µM) | 500 mg/L (≈ 1430 µM) | 100 mg/L (≈ 285 µM) | 20 mm | <1 | > 13.2 mg/L | > 4 mg/L | 16 mm | > 13.2 mg/L | 250 mg/L (≈ 713 µM) | 18 mm | MIC [13]: 200 mg/L (≈ 571 µM); zone of inhibition at 250 µg/mL [17]: 21 mm; MIC [18]: 500 mg/L (≈ 1430 µM); zone of inhibition at 250 µg/mL [20]: 21 mm; zone of inhibition at 250 µg/mL [24]: 24 mm
7 | [O-]c1on[n+](-c2ccc(Cc3ccc(-[n+]4noc([O-])c4CN4CCN(c5cccc(Cl)c5Cl)CC4)cc3)cc2)c1CN1CCN(c2cccc(Cl)c2Cl)CC1 | 125 mg/L (≈ 152 µM) | > 20 mg/L | 21 mm | 20.8 mg/L (≈ 25.3 µM) | 12.6 mg/L (≈ 15.3 µM) | <1 | 100 µg/mL | 28.7 mg/L (≈ 34.9 µM) | > 4 mg/L | 1000 mg/L (≈ 1220 µM) | 125 mg/L (≈ 152 µM) | 250 mg/L (≈ 304 µM) | 17 mm | <1 | > 20.8 mg/L | > 4 mg/L | 21 mm | > 20.8 mg/L | 200 mg/L (≈ 243 µM) | 18 mm | MIC [13]: 250 mg/L (≈ 304 µM); zone of inhibition at 250 µg/mL [17]: 23 mm; MIC [18]: 1000 mg/L (≈ 1220 µM); zone of inhibition at 250 µg/mL [20]: 21 mm; zone of inhibition at 250 µg/mL [24]: 23 mm
8 | Cc1ccc(-[n+]2cc([O-])on2)cc1 |  | > 20 mg/L |  |  | > 20 mg/L |  | 100 µg/mL | 33.1 mg/L (≈ 188 µM) | > 20 mg/L |  |  |  |  |  |  | > 20 mg/L |  |  |  |  | 
9 | CCn1cc(C(=O)O)c(=O)c2cc(F)c(N3CCNCC3)cc21 [NORFLOXACIN] | 10 mg/L (≈ 31.3 µM) |  | 28 mm |  |  |  |  |  |  |  | 10 mg/L (≈ 31.3 µM) | 10 mg/L (≈ 31.3 µM) | 23 mm |  |  |  | 29 mm |  | 10 mg/L (≈ 31.3 µM) | 21 mm | 
